Data reported in ChEMBL document CHEMBL5465560, “Selectivity Literature for EUbOPEN Chemogenomic Library” (2024).

Assays:
[1] = target: 5-hydroxytryptamine receptor 1B (Homo sapiens) (UniProt P28222); assay: Selectivity interaction (Safety Panel 44tm (Eurofins)) EUB0000162b HTR1B; conditions: at 10 µM
[2] = target: T1, Fibroblast growth factor receptor 4 (Homo sapiens, UniProt P22455); assay: Selectivity interaction (KinomeScan (DiscoverX)) EUB0000229b FGFR4; conditions: at 10 µM
[3] = target: T2, Serine/threonine-protein kinase haspin (Homo sapiens) (UniProt Q8TF76); assay: Selectivity interaction (KinomeScan (DiscoverX)) EUB0001079a GSG2; conditions: at 1 µM
T2 sequence (whole entry): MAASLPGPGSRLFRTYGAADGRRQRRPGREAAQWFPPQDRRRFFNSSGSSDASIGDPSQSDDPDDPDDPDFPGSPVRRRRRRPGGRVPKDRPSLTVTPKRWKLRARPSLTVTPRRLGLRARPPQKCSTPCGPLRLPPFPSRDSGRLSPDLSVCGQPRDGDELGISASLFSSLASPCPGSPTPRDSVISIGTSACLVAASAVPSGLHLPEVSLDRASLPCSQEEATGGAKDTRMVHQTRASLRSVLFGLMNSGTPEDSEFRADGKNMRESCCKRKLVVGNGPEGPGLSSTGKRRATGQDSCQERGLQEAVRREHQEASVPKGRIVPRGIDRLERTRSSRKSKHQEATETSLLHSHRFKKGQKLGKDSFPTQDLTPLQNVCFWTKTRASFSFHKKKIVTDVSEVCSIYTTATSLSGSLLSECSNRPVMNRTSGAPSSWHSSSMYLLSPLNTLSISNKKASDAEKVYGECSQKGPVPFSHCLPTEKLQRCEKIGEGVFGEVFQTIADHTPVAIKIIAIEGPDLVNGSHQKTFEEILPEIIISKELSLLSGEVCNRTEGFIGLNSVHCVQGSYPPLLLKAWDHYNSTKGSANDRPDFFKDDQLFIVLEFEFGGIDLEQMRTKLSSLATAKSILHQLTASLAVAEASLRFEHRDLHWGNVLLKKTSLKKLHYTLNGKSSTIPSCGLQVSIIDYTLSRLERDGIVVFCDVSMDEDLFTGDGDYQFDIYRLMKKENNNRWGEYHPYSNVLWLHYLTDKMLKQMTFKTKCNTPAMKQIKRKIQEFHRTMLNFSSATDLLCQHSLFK

[4] = target: Serine/threonine-protein kinase 38-like (Homo sapiens) (UniProt Q9Y2H1); assay: Selectivity interaction (Kinase panel (DSF assay)) EUB0001558a STK38L
[5] = target: Tyrosine-protein kinase JAK2 (Homo sapiens, UniProt O60674); assay: Selectivity interaction (KinomeScan (DiscoverX)) EUB0000092b JAK2; conditions: at 10 µM
[6] = target: T3, Ephrin type-B receptor 1 (Homo sapiens) (UniProt P54762); assay: Selectivity interaction (Ambit KINOMEscan and KiNATiv profiling in Jurkat cells) EUB0000090b EPHB1; type: cell-based; conditions: at 1 µM
T3 sequence (whole entry): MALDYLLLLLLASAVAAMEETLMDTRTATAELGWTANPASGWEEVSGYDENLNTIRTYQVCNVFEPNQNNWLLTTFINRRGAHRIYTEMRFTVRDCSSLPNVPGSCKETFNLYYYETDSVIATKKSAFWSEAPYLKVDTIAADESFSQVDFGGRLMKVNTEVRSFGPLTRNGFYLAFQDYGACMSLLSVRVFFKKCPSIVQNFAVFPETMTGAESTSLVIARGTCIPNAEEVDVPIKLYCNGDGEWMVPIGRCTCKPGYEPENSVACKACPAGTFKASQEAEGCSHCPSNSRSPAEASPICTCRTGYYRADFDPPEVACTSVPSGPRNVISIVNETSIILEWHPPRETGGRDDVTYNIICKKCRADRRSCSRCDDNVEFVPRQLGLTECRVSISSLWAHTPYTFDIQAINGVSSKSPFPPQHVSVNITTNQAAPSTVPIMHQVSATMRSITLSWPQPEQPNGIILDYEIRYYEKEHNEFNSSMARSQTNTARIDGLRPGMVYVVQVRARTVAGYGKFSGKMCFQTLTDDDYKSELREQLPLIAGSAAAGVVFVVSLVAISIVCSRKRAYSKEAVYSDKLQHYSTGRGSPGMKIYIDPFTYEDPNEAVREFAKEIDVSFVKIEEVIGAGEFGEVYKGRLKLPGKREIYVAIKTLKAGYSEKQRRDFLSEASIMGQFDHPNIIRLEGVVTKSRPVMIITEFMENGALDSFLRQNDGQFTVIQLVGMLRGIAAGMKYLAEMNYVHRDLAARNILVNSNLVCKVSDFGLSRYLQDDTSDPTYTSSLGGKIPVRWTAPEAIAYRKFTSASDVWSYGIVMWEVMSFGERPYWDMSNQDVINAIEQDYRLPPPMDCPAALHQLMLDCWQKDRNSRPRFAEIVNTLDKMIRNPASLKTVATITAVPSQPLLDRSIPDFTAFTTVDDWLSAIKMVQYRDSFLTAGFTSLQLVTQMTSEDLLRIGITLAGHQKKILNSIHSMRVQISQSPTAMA

[7] = target: Serine/threonine-protein kinase MARK2 (Homo sapiens) (UniProt Q7KZI7); assay: Selectivity interaction (KinomeScan (DiscoverX)) EUB0000045b MARK2
[8] = target: T1, Fibroblast growth factor receptor 4; assay: Selectivity interaction (KinomeScan (DiscoverX)) EUB0000618a FGFR4; conditions: at 10 µM
[9] = target: High affinity nerve growth factor receptor (Homo sapiens, UniProt P04629); assay: Selectivity interaction (KinomeScan (DiscoverX)) EUB0001619a NTRK1; conditions: at 1 µM
High affinity nerve growth factor receptor, sequence (P04629 33-796 limits assumed): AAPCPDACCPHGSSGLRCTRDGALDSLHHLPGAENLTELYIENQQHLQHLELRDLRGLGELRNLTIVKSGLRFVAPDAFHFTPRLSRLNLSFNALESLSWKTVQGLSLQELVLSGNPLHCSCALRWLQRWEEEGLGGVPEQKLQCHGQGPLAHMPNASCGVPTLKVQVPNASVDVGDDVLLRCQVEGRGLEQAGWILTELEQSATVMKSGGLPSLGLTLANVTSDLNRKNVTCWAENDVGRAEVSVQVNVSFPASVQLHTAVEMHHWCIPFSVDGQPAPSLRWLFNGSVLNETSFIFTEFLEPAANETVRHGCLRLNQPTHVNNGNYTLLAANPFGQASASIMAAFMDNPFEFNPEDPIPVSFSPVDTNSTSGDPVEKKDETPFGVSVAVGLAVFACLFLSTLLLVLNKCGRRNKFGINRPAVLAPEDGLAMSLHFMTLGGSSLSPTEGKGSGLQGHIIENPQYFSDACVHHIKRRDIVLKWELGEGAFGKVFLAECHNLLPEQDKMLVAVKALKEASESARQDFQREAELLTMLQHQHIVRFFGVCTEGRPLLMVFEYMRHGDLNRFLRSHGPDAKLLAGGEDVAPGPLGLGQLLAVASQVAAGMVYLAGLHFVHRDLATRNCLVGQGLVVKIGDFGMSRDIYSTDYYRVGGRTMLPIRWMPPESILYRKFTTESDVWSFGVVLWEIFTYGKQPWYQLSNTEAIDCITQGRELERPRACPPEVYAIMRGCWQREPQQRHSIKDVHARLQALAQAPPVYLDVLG

Serine/threonine-protein kinase MARK2 (Homo sapiens), sequence (Q7KZI7 whole entry): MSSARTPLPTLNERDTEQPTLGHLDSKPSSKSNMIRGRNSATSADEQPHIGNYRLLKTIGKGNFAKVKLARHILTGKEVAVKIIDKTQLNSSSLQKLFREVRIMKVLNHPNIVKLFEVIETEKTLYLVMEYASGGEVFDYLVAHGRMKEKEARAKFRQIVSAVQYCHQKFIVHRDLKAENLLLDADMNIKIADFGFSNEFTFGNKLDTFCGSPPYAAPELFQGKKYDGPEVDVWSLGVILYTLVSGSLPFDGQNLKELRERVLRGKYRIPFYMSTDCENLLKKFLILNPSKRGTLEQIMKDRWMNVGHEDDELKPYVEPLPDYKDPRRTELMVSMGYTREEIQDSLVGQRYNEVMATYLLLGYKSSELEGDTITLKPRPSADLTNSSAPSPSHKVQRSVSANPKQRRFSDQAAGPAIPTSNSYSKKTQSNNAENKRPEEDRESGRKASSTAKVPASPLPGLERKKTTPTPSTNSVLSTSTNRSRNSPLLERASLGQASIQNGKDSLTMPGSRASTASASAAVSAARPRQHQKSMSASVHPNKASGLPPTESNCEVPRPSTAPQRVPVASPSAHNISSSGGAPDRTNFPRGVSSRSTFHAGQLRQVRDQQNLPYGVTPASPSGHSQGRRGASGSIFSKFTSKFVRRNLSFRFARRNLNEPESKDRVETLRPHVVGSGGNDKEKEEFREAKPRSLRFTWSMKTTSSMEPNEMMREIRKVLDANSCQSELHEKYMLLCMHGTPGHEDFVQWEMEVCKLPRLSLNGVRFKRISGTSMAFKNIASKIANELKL
T1 sequence (P22455 22-802 limits assumed): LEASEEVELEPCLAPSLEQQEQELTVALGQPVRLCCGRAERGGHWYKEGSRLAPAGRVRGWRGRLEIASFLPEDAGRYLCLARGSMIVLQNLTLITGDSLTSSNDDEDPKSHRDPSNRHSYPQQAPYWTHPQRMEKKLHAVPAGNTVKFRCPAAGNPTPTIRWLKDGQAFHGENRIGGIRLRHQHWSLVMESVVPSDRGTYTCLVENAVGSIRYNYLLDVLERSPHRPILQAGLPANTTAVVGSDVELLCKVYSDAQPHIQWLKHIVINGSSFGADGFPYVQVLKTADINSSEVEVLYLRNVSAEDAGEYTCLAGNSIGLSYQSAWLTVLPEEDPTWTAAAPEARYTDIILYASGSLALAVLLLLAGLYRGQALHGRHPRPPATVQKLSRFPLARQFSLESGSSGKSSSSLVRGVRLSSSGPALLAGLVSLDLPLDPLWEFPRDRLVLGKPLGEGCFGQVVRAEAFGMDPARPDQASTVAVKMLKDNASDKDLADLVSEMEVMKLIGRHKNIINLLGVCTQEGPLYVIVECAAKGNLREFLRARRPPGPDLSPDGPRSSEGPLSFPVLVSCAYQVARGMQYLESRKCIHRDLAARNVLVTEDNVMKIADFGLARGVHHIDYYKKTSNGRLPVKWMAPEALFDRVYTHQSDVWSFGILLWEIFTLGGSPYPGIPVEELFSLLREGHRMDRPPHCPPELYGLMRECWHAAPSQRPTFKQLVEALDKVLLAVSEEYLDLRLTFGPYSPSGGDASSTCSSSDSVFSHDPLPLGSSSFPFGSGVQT
Serine/threonine-protein kinase 38-like (Homo sapiens), sequence (Q9Y2H1 2-464 limits assumed): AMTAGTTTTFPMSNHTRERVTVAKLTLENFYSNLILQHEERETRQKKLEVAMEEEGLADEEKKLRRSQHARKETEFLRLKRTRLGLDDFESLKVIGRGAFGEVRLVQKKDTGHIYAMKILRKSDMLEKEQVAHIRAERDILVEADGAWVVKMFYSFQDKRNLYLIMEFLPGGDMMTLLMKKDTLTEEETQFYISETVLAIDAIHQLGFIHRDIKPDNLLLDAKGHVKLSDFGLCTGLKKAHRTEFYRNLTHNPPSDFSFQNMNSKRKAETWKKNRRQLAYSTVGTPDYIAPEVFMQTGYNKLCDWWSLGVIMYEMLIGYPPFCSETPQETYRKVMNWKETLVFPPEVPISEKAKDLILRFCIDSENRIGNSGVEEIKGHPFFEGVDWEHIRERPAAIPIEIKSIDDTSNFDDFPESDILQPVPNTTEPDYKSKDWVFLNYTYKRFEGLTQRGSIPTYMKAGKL
5-hydroxytryptamine receptor 1B (Homo sapiens), sequence (P28222 whole entry): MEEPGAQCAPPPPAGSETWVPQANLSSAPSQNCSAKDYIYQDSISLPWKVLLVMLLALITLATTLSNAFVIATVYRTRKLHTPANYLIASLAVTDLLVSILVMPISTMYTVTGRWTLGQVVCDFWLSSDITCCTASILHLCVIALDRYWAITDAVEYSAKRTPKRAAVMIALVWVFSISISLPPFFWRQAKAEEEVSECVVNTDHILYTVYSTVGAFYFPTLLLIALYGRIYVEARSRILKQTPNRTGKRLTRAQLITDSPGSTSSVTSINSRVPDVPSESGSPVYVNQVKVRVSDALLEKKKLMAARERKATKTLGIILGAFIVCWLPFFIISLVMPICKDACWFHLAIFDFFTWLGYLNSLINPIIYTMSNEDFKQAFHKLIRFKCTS
Tyrosine-protein kinase JAK2, sequence (O60674 whole entry): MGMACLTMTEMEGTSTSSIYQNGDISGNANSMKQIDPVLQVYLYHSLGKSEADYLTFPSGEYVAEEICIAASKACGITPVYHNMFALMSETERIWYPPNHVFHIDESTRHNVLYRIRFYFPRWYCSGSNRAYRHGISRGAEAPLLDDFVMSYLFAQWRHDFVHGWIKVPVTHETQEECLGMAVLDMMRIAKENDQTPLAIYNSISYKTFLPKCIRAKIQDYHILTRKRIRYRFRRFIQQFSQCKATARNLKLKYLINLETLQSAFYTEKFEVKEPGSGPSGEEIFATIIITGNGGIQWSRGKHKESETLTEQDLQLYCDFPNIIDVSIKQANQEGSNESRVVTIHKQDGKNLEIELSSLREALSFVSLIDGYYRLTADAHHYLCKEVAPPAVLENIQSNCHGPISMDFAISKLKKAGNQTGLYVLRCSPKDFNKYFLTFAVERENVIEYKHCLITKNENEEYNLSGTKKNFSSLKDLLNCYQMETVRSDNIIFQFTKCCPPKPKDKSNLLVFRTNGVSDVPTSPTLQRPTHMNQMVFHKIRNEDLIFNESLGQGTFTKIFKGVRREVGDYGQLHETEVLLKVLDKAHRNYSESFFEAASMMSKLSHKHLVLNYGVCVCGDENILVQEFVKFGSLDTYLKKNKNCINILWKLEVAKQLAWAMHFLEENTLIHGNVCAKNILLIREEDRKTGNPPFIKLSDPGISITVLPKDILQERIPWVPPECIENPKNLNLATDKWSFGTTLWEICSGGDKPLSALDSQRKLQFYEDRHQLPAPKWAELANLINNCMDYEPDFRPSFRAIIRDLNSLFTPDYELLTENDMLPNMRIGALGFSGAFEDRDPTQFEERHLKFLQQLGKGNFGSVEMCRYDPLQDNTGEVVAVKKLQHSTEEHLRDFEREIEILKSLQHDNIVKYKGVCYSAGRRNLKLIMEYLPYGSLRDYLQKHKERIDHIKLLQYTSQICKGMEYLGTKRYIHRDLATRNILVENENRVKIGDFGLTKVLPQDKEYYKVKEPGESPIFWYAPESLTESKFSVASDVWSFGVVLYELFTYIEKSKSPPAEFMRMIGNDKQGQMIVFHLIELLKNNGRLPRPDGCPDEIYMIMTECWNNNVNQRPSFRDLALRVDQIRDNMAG

CN(C)C(=O)Cn1cc(-c2ccc(-c3cncc4ccccc34)cc2)cn1
% of control [1]: 53%

COc1cc(N(C)c2ccnc3ccc(C(F)(F)F)cc23)cc(OC)c1OC
% binding [2]: 100%

Nc1cnc(N2CCc3cc(S(=O)(=O)Nc4c(F)cc(Cl)cc4F)cc(N4CCCC4=O)c32)nc1 [TP-020n]
% of control [3]: 100%

CC(C)(O)[C@H](F)CN1Cc2cc(NC(=O)c3cnn4cccnc34)c(N3CCOCC3)cc2C1=O
dTM [4]: -0.2 K

CCC(=O)N1CCN(c2ccc(-n3c(=O)ccc4cnc5ccc(-c6cnc7ccccc7c6)cc5c43)cc2C(F)(F)F)CC1
% of control [5]: 65%

CN(C)C/C=C/C(=O)Nc1ccc(C(=O)N2CCCC(Nc3ncc(Cl)c(-c4c[nH]c5ccccc45)n3)C2)cc1 (stereo not given)
% of control [6]: 95%

C=CC(=O)Nc1cc(-n2c(=O)ccc3cnc4ccc(-c5ccc(NS(C)(=O)=O)cc5)cc4c32)ccc1C
% of control ([7]; at 1 µM): 94% | % of control ([7]; at 10 µM): 100%

O[C@H]1CC[C@H](Nc2ncc3nc(Nc4c(F)cc(F)cc4F)n([C@H]4CCOC4)c3n2)CC1
% of control [8]: 74%

N#Cc1cccc(-c2c[nH]c3ncnc(N4CCOCC4)c23)c1
% of control [9]: 88%
